# Measurements as given in EP0252380B1, “Antibiotic LL-E19020 alpha and beta” (AMERICAN CYANAMID COMPANY, priority 1986, dated 1988).
# Marks after values point to notes of the source that are not given here.
# What was measured:
# Enterococcus = assay: In vitro antibacterial activity, standard agar dilution method (Table II); format: cell-based
# Escherichia coli = assay: as above; format: cell-based; conditions: strain 311
# Pseudomonas aeruginosa = assay: as above; format: cell-based; conditions: strain 12-4-4
# Clostridium perfringens = format: cell-based; conditions: strain ATCC 13124
# Streptococcus agalactiae = assay: Minimum inhibitory concentration by agar dilution (Table VI); format: cell-based; conditions: 4 strains tested
# Streptococcus faecalis = assay: as above; format: cell-based; conditions: 1 strain tested
# Streptococcus uberis = assay: as above; format: cell-based; conditions: 1 strain tested
# [1] = test system: Bordetella bronchiseptica; assay: as above; format: cell-based; conditions: 4 strains tested
# Pasteurella haemolytica = assay: as above; format: cell-based; conditions: 3 strains tested
# [2] = Growth of chickens and efficiency of feed utilization (Example 5, Table VIII); format: in vivo, Peterson X Arbor Acres chicks; conditions: for Feed/Gain 0-1 Wk: control 1.21; for Feed/Gain 0-2 Wk: control 1.33; for Feed/Gain 0-3 Wk: control 1.43
# Procedure: In this test one day old Peterson X Arbor Acres chicks are sorted into equal weight groups of 5 males and 5 females per cage. Cages are randomized to treatment groups with six replicates per treatment. Each compound is tested at 50 and 100 ppm in the diet and evaluated against chicks receiving a non-medicated diet.
# The chicks are weighed at the start of the test and at 1 week intervals thereafter to the conclusion of said test. The chicks are given free access to feed and water during the entire test period. The feed is weighed when provided to the chicks and excess feed collected and weighed when the cages are cleaned.
# The poultry diet employed in the test is as follows: Vitamin-amino acid premix 0.5% Trace minerals 0.1% Sodium chloride 0.3% Dicalcium phosphate 1.2% Ground limestone 0.5% Stabilized fat 4.0% Dehydrated alfalfa, 17% protein 2.0% Corn gluten meal, 41% protein 5.0% Menhaden fish meal, 60% protein 5.0% Soybean oil meal, 44% protein 30.0% Ground yellow corn, fine to 100.0%
# The vitamin-amino acid premix in the above feed composition is prepared from the following formulation. The expressions of quantity relate to units per kilogram of the finished feed compositions. Butylated hydroxy toluene 125.0 mg d1-Methionine 500.0 mg Vitamin A 3300.0 I.U. Vitamin D₃ 1100.0 I.C.U. Riboflavin 4.4 mg Vitamin E 2.2 I.U. Niacin 27.5 mg Panthothenic acid 8.8 mg Choline chloride 500.0 mg Folic acid 1.43 mg Menadione sodium bisulfate 1.1 mg Vitamin B₁₂ 11.0 mcg Ground yellow corn, fine to […]
# [3] = Weight gain and feed efficiency of broiler chicks (Example 6, Table IX); format: in vivo, Peterson X Arbor Acres chicks; conditions: for Wg Gains And Feed Efficiency % Improvement Over Controls FEED/GAIN: control 1.41
# [4] = test system: In Vitro Rumen Fermentation; assay: Propionate enhancement activity during in vitro rumen fermentation; format: cell-based, steer; conditions: for A:P: acetate/propionate ratio
# Procedure: The drugs are dissolved or suspended (sonified if necessary) in a 0.1% Tween 20-ethanol-water vehicle and 25-50 ul is added to the incubation. The reaction is terminated with 6N HCl and centrifuged at 20,000 x g. Alliquots of the superinatant are analyzed for volatile fatty acid (VFA) content by gas-liquid chromatography.
# [5] = test system: Staphylococcus aureus Smith; assay: In vivo antibacterial activity in infected mice (Table III); conditions: S. aureus Smith, 30 minutes before infection
# [6] = test system: Pasteurella multocida 31081B; assay: Pasteurella disk test (primary in vitro disk diffusion test); conditions: disks soaked in 2.5 mg/ml solution; strain 31081B
# [7] = test system: Mycoplasma gallisepticum "R"; assay: Minimum inhibitory concentration assay for Mycoplasma gallisepticum (microdilution, Table VII); conditions: microdilution; "R" strain
structure (smiles),measurement,setting,value
C/C=C/C=C/[C@@H]1O[C@](O)([C@H](CO[C@H]2C[C@H](OC)[C@H](O[C@@H]3C[C@H](OC)[C@@H](O[C@H]4C[C@H](OC)[C@H](O)[C@H](C)O4)[C@H](C)O3)[C@H](C)O2)C(=O)NC/C=C/C=C(\C)[C@H](OC)[C@@H](C)[C@@H]2C[C@H](O)[C@@H](/C=C/C=C/C=C\C(=O)O)O2)[C@@H](O)[C@H](OC(=O)Cc2ccccc2)C1(C)C [LL-E19020 beta],Minimal Inhibitory Concentration,Enterococcus; strain CMC-83-72,>128 µg/mL
same,Minimal Inhibitory Concentration,Enterococcus; strain IO-83-28,>128 µg/mL
same,Minimal Inhibitory Concentration,Enterococcus; strain IO-83-40,>128 µg/mL
same,Minimal Inhibitory Concentration,Enterococcus; strain VGH-84-65,>128 µg/mL
same,Minimal Inhibitory Concentration,Enterococcus; strain VGH-84-68,>128 µg/mL
same,Minimal Inhibitory Concentration,Escherichia coli,>128 µg/mL
same,Minimal Inhibitory Concentration,Pseudomonas aeruginosa,>128 µg/mL
same,Minimal Inhibitory Concentration,Clostridium perfringens,4 µg/mL
same,MIC,Streptococcus agalactiae,2 to 4 µg/mL
same,MIC,Streptococcus faecalis,8 µg/mL
same,MIC,Streptococcus uberis,4 µg/mL
same,MIC,[1],> 256 µg/mL
same,MIC,Pasteurella haemolytica,16 µg/mL
same,Weight Gains % Improvement over Controls 0-1 Wk,[2]; 50 ppm in the diet,12.7** %
same,Weight Gains % Improvement over Controls 0-2 Wk,[2]; 50 ppm in the diet,4.5* %
same,Weight Gains % Improvement over Controls 0-3 Wk,[2]; 50 ppm in the diet,5.3* %
same,Feed/Gain 0-1 Wk,[2]; 50 ppm in the diet,1.11*
same,Feed/Gain 0-2 Wk,[2]; 50 ppm in the diet,1.31
same,Feed/Gain 0-3 Wk,[2]; 50 ppm in the diet,1.40
same,Weight Gains % Improvement over Controls 0-1 Wk,[2]; 100 ppm in the diet,10.7* %
same,Weight Gains % Improvement over Controls 0-2 Wk,[2]; 100 ppm in the diet,5.1* %
same,Weight Gains % Improvement over Controls 0-3 Wk,[2]; 100 ppm in the diet,5.9** %
same,Feed/Gain 0-1 Wk,[2]; 100 ppm in the diet,1.13*
same,Feed/Gain 0-2 Wk,[2]; 100 ppm in the diet,1.29
same,Feed/Gain 0-3 Wk,[2]; 100 ppm in the diet,1.38
same,efficiency of feed utilization (statement in words),[2]; over unmedicated controls,increased the efficiency of feed utilization
same,weight gains of chicks (statement in words),[2]; over unmedicated controls,improved the weight gains of chicks
same,Wg Gains And Feed Efficiency % Improvement Over Controls COMBINED,[3]; 12.5 PPM in diet,2.6%
same,Wg Gains And Feed Efficiency % Improvement Over Controls FEMALES,[3]; 12.5 PPM in diet,6.0%
same,Wg Gains And Feed Efficiency % Improvement Over Controls MALES,[3]; 12.5 PPM in diet,0%
same,Wg Gains And Feed Efficiency % Improvement Over Controls FEED/GAIN,[3]; 12.5 PPM in diet,1.33**
same,Wg Gains And Feed Efficiency % Improvement Over Controls COMBINED,[3]; 25 PPM in diet,3.4%
same,Wg Gains And Feed Efficiency % Improvement Over Controls FEMALES,[3]; 25 PPM in diet,5.1%
same,Wg Gains And Feed Efficiency % Improvement Over Controls MALES,[3]; 25 PPM in diet,2.4%
same,Wg Gains And Feed Efficiency % Improvement Over Controls FEED/GAIN,[3]; 25 PPM in diet,1.38*
same,Wg Gains And Feed Efficiency % Improvement Over Controls COMBINED,[3]; 50 PPM in diet,2.2%
same,Wg Gains And Feed Efficiency % Improvement Over Controls FEMALES,[3]; 50 PPM in diet,4.6%
same,Wg Gains And Feed Efficiency % Improvement Over Controls MALES,[3]; 50 PPM in diet,0%
same,Wg Gains And Feed Efficiency % Improvement Over Controls FEED/GAIN,[3]; 50 PPM in diet,1.38*
same,Wg Gains And Feed Efficiency % Improvement Over Controls COMBINED,[3]; 100 PPM in diet,4.5%
same,Wg Gains And Feed Efficiency % Improvement Over Controls FEMALES,[3]; 100 PPM in diet,7.2%
same,Wg Gains And Feed Efficiency % Improvement Over Controls MALES,[3]; 100 PPM in diet,1.7%
same,Wg Gains And Feed Efficiency % Improvement Over Controls FEED/GAIN,[3]; 100 PPM in diet,1.34**
same,Wg Gains And Feed Efficiency % Improvement Over Controls COMBINED,[3]; 200 PPM in diet,2.7%
same,Wg Gains And Feed Efficiency % Improvement Over Controls FEMALES,[3]; 200 PPM in diet,1.4%
same,Wg Gains And Feed Efficiency % Improvement Over Controls MALES,[3]; 200 PPM in diet,4.2%
same,Wg Gains And Feed Efficiency % Improvement Over Controls FEED/GAIN,[3]; 200 PPM in diet,1.35**
same,A:P,"[4]; Table X, 0.008 PPM, control 2.65",2.63
same,TOTAL VFA,"[4]; Table X, 0.008 PPM, control 159.4",161.2 mM
same,A:P,"[4]; Table X, 0.031 PPM, control 2.65",2.44
same,TOTAL VFA,"[4]; Table X, 0.031 PPM, control 159.4",161.1 mM
same,A:P,"[4]; Table X, 0.125 PPM, control 2.65",2.19
same,TOTAL VFA,"[4]; Table X, 0.125 PPM, control 159.4",161.6 mM
same,A:P,"[4]; Table X, 0.500 PPM, control 2.65",2.15
same,TOTAL VFA,"[4]; Table X, 0.500 PPM, control 159.4",156.7 mM
same,A:P,"[4]; Table X, 2.000 PPM, control 2.65",2.18
same,TOTAL VFA,"[4]; Table X, 2.000 PPM, control 159.4",153.8 mM
same,A:P,"[4]; Table XI, 0.015 PPM, control 2.19",2.03
same,TOTAL VFA,"[4]; Table XI, 0.015 PPM, control 125.3",127.2 mM
same,A:P,"[4]; Table XI, 0.031 PPM, control 2.19",1.98
same,TOTAL VFA,"[4]; Table XI, 0.031 PPM, control 125.3",125.7 mM
same,A:P,"[4]; Table XI, 0.062 PPM, control 2.19",1.96
same,TOTAL VFA,"[4]; Table XI, 0.062 PPM, control 125.3",123.7 mM
same,A:P,"[4]; Table XI, 0.125 PPM, control 2.19",1.92
same,TOTAL VFA,"[4]; Table XI, 0.125 PPM, control 125.3",124.3 mM
same,A:P,"[4]; Table XI, 0.250 PPM, control 2.19",1.93
same,TOTAL VFA,"[4]; Table XI, 0.250 PPM, control 125.3",122.6 mM
same,Survival Ratios 7 Days After Infection,[5]; single subcutaneous dose 4 mg/kg,1/5
same,Survival Ratios 7 Days After Infection,[5]; single subcutaneous dose 16 mg/kg,1/5
same,Survival Ratios 7 Days After Infection,[5]; single subcutaneous dose 64 mg/kg,1/5
same,Survival Ratios 7 Days After Infection,[5]; single subcutaneous dose 256 mg/kg,1/5
same,ZONE SIZE,[6],13 mm
same,MIC,[7],0.125 µg/mL
